Test results: patent publication US11110088B2, “Imidazopyrazine inhibitors of Bruton's tyrosine kinase” (Acerta Pharma B.V., priority 2015, dated 2021)

Legend:
ITK = ITK (Homo sapiens (Human), UniProt Q08881); assay: ITK enzyme activity, IMAP assay; format: biochemical; settings: 60 min pre-incubation; 5 μM ATP
Method: ITK enzyme activity is measured using the IMAP (immobilized metal ion affinity-based fluorescence polarization) assay as outlined below.
ITK enzyme (Millipore #14-660M) is diluted to 0.2 U/mL in KR buffer (10 mM Tris-HCl, 10 mM MgCl2, 0.01% Tween-20, 0.1% NaN3, 1 mM DTT, 2 mM MnCl2, pH 7.5)
(§1) The dilutions in DMSO are then diluted 50-fold in KR-buffer.
(§2) Test compounds and ITK enzyme are pre-incubated 60 minutes at room temperature, before adding 5 μL/well of 200 nM Fluorescin labeled substrate peptide (Blk/Lyntide substrate #R8124, Molecular Devices) in KR-buffer. Final peptide substrate concentration in assay is 50 nM. […] IC50 values are determined by curve fitting of the experimental results using Activity Base.

Txk = Txk (Homo sapiens (Human), UniProt P42681); assay: TXK enzyme activity, IMAP assay; format: biochemical; settings: 60 min pre-incubation; 1 μM ATP
Method: TXK enzyme activity is measured using the IMAP (immobilized metal ion affinity-based fluorescence polarization) assay as outlined below.
TXK enzyme (Millipore #14-761), is diluted to 2.5 U/mL in KR buffer (10 mM Tris-HCl, 10 mM MgCl2, 0.01% Tween-20, 0.1% NaN3, 1 mM DTT, 2 mM MnCl2, pH 7.5).
(§3) Serial dilutions log 10 from 2 mM to 63.2 nM of test compounds are made in 100% DMSO. The dilutions in DMSO are then diluted 50-fold in KR-buffer. Final compound concentration range in the assay ranged from 10 μM to 0.316 nM.
The assay is performed as follows: 5 μL/well of test compound in KR buffer (final DMSO concentration in the assay is 1%) is mixed with 5 μL/well of 2.5 U/mL TXK enzyme (final concentration in the assay is 0.625 U/mL (4.4 nM)). Test compounds and TXK enzyme are pre-incubated 60 minutes at room temperature, before adding 5 μL/well of 200 nM Fluorescin labeled substrate peptide (Blk/Lyntide substrate #R7188, Molecular Devices) in KR-buffer. Final peptide substrate concentration in assay is 50 nM. […] Following incubation for 2 hours at room temperature the enzyme reaction is stopped by adding 40 μL/well IMAP Progressive Binding Solution (according to suppliers (Molecular Devices) protocol using 60% 1× buffer A and 40% 1× buffer B with 800× diluted beads (Progressive Binding System, Molecular Devices). After 60 min incubation at room temperature in the dark the FP signal is read. Fluorescence at 535 nm is measured using parallel and perpendicular filters to determine differences in rotation due to binding of the phosphorylated substrate peptide to the beads. Values are calculated as percentage of the difference in readout (ΔmPi) of the controls with and without ATP. IC50 values are determined by curve fitting of the experimental results using Activity Base.

EGFR WT = EGFR WT (Homo sapiens (Human), UniProt P00533); assay: EGFR enzyme activity, IMAP assay; format: biochemical; settings: 60 min pre-incubation; 2 μM ATP
Method: EGFR enzyme activity is measured using the IMAP (immobilized metal ion affinity-based fluorescence polarization) assay as outlined below.
EGFR enzyme (Invitrogen catalog #PR7295B), is diluted to 2.5 μg/mL in KR buffer (10 mM Tris-HCl, 10 mM MgCl2, 0.01% Tween-20, 0.1% NaN3, 1 mM DTT, 2 mM MnCl2, pH 7.5).
Final peptide substrate concentration in assay is 50 nM. […] Following incubation for 60 min at room temperature in the dark the enzyme reaction is stopped by adding 40 μL/well IMAP Progressive Binding Solution (according to suppliers (Molecular Devices) protocol using 20% 1× buffer A and 80% 1× buffer B with 600× diluted beads). After 60 min incubation at room temperature in the dark the FP signal is read. […] Values are calculated as percentage of the difference in readout (ΔmPi) of the controls with and without ATP. IC50 values are determined by curve fitting of the experimental results using GraphPad Prism6.

[1] = tested on: CD69 in CD19+ B cells of anti-IgM stimulated PBMCs; assay: Human peripheral blood mononuclear cell (PBMC) CD69 assay; format: cell-based; settings: 2 h compound, then anti-IgM 18 hours
Method: Example 44—Human Peripheral Blood Mononuclear Cell (PBMC) CD69 Assay
Whole blood was collected in heparin-coated Vacutainer tubes (BD Biosciences, San Jose, Calif.) and used for isolation of PBMCs using Ficoll-Hypaque (Pharmacia, Uppsala, Sweden). Isolated PBMCs were cryopreserved in 90% FCS/10% DMSO until later use.
Cells from cryogenic storage were thawed in a 37° C. water bath, diluted with RPMI/1% FCS, washed 2 times, and then plated at 1×10^5 cells per well in RPMI/10% FCS.
Serial dilutions log 10 from 10 mM to 316 nM of test compounds are made in 100% DMSO, followed by a 100-fold dilution into RPMI/1% FCS. For each well, 10 μL was then transferred to the deep well plate containing 90 μL of PBMC cells. Final compound concentration range in the assay ranged from 10 μM to 0.316 nM, with a final DMSO concentration of 0.1%. PBMCs are then incubated for 2 h at 37° C. in presence or absence of test compounds, prior to stimulation with goat F(ab′)2 anti-IgM (Southern Biotech, #2022-14, final concentration in assay 5 μg/mL) for 18 hours.
Following stimulation with anti-IgM, PBMCs were incubated on ice for 30 min with anti-CD69-FITC, anti-CD19-BV421 (BD Biosciences #555530 and #562440, respectively) and 7AAD (Life Technologies #A1310). Flow cytometry was performed and fluorescence values were obtained from the CD69-FITC channel in CD19+ gated life B cells. ECso values are determined by curve fitting of the experimental results using GraphPad Prism.

BTK = BTK (Homo sapiens (Human), UniProt Q06187); assay: BTK enzyme activity, IMAP assay; format: biochemical; settings: 60 min pre-incubation; 5 μM ATP
Method: BTK enzyme activity is measured using the IMAP (immobilized metal ion affinity-based fluorescence polarization) assay as outlined below.
BTK enzyme (His-BTK (Millipore catalog #14-552)), is diluted to 0.4 U/mL in KR buffer (10 mM Tris-HCl, 10 mM MgCl2, 0.01% Tween-20, 0.05% NaN3, 1 mM DTT, 2 mM MnCl2, pH 7.2).
as §3
The assay is performed as follows: 5 μL/well of test compound in KR buffer (final DMSO concentration in the assay is 1%) is mixed with 5 µl/well of 0.4 U/mL BTK enzyme (final concentration in the assay is 0.1 U/mL). Test compounds and BTK enzyme are pre-incubated 60 minutes at room temperature, before adding 5 μL/well of 200 nM Fluorescin labeled substrate peptide (Blk/Lyntide substrate, e.g. #R7188/#R7233, Molecular Devices) in KR-buffer. Final peptide substrate concentration in assay is 50 nM. […] Following incubation for 2 hours at room temperature the enzyme reaction is stopped by adding 40 μL/well IMAP Progressive Binding Solution (according to suppliers (Molecular Devices) protocol using 75% 1× buffer A and 25% 1× buffer B with 1:600 Progressive Binding Solution). After 60 min incubation at room temperature in the dark the FP signal is read. Fluorescence at 535 nm is measured using parallel and perpendicular filters to determine differences in rotation due to binding of the phosphorylated substrate peptide to the beads. Values are calculated as percentage of the difference in readout (ΔmPi) of the controls with and without ATP. IC50 values are determined by curve fitting of the experimental results using Activity Base.

Bmx = Bmx (Homo sapiens (Human), UniProt P51813); assay: BMX enzyme activity, IMAP assay; format: biochemical; settings: 60 min pre-incubation; 5 μM ATP
Method: BMX enzyme activity is measured using the IMAP (immobilized metal ion affinity-based fluorescence polarization) assay as outlined below.
as §1
as §2, with “BMX” for “ITK”, “#R7188,” for “#R8124,”

Chain of EGFR WT (P00533 25-1210): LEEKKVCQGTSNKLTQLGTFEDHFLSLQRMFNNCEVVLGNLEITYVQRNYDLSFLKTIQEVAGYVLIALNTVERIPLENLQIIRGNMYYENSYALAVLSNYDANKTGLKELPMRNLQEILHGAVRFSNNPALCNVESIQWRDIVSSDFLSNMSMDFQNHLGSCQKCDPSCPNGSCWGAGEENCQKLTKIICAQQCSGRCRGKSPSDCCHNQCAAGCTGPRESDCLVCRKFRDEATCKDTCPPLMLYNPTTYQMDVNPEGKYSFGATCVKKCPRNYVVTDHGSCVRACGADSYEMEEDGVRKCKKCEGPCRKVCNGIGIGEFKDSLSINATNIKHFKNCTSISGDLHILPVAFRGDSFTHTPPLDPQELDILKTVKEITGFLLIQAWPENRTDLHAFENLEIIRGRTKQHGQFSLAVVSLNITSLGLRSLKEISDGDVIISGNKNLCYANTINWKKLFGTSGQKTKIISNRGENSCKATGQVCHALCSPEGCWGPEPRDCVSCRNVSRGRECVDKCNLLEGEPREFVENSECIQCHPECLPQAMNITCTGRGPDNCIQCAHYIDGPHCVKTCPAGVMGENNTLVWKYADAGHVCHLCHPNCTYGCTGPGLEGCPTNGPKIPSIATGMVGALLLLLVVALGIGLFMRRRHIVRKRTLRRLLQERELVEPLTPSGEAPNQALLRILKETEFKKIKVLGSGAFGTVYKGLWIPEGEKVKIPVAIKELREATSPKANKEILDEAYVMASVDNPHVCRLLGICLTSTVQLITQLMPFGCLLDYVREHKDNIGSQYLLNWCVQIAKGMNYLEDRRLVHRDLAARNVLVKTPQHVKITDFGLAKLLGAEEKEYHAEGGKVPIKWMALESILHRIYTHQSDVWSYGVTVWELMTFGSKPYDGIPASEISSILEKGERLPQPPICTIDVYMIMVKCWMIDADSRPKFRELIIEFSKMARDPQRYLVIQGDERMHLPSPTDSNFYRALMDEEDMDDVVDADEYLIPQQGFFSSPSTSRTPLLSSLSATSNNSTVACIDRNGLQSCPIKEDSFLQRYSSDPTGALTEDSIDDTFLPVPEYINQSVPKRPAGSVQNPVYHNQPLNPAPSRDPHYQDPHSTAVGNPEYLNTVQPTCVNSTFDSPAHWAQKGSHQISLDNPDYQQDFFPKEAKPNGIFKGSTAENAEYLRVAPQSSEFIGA
Chain of BTK (Q06187 whole entry): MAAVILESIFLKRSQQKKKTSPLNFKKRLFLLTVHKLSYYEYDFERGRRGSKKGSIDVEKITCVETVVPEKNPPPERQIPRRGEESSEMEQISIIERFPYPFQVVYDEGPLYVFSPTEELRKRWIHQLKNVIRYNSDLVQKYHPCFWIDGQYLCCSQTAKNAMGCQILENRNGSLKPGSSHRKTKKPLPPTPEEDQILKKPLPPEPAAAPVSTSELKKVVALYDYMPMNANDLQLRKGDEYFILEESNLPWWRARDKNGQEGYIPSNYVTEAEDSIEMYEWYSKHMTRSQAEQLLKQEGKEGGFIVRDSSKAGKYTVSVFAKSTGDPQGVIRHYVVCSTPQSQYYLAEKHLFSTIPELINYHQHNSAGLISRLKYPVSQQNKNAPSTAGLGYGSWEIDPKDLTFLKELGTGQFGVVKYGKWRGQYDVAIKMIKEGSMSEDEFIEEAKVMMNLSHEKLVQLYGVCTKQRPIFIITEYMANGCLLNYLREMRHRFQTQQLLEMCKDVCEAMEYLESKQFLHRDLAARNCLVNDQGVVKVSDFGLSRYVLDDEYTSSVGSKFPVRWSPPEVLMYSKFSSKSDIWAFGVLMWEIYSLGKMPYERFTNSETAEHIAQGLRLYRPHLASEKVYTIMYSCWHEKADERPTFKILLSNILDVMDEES
Chain of ITK (Q08881 whole entry): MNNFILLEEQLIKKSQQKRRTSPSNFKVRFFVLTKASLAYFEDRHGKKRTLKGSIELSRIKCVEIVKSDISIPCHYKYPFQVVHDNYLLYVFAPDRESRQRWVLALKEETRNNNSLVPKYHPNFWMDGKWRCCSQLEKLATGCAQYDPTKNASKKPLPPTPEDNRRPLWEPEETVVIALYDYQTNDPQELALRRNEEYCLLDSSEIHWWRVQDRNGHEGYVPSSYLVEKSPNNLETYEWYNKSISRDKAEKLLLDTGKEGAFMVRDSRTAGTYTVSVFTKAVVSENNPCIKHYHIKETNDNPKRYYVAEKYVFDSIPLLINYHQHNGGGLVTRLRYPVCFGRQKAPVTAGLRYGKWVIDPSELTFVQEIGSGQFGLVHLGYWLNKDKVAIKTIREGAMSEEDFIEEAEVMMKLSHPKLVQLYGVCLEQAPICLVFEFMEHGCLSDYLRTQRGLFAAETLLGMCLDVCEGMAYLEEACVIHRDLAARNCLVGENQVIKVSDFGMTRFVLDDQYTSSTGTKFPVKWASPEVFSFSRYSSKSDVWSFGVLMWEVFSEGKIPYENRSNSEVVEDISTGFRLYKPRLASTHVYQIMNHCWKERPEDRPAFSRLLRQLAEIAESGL
Chain of Bmx (P51813 whole entry): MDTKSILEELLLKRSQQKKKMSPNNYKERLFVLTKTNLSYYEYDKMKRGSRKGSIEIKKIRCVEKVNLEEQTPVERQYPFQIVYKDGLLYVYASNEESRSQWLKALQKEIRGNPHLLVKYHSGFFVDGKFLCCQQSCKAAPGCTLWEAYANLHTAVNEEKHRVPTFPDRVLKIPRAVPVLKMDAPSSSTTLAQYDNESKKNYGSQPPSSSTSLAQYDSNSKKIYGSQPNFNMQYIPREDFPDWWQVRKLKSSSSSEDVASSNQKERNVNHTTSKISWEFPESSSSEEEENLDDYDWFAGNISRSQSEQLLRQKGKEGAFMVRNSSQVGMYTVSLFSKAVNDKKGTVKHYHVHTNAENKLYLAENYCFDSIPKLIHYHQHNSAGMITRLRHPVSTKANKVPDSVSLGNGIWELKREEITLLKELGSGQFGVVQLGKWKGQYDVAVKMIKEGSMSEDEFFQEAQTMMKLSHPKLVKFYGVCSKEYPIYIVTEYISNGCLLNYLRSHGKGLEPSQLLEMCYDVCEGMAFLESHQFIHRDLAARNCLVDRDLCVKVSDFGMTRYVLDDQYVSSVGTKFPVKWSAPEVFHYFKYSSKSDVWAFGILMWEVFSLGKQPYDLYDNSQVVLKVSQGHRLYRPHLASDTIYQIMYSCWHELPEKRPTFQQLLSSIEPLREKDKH
Chain of Txk (P42681 whole entry): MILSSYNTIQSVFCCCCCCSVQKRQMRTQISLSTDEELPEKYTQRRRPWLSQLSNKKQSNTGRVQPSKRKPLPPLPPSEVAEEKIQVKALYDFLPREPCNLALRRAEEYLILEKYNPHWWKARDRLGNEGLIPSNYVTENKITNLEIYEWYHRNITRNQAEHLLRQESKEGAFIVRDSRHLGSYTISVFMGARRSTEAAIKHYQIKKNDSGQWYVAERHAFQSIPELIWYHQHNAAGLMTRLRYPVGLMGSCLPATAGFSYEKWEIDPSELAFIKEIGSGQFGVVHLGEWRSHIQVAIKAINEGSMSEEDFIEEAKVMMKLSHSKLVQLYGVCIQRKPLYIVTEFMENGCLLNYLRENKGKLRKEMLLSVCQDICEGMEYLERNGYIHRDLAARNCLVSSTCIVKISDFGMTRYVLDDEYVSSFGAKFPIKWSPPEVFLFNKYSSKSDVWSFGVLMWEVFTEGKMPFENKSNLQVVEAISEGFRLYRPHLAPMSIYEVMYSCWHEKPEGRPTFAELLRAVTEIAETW

SMILES | IC50 (ITK) [nM] | IC50 (Txk) [nM] | IC50 (EGFR WT) [nM] | EC50 ([1]; Homo sapiens, PBMC) [nM] | IC50 (BTK) [nM] | IC50 (Bmx) [nM] | EC50 ([1]; PBMC) [nM] | EC50 [1] [nM]
CC#CC(=O)N[C@@H](C)c1nc(-c2ccc(C(=O)Nc3ccccn3)c(OC)c2)c2c(N)nccn12 | > 1000 | 2 | > 1000 | 1.3 | 1.6 | 3.1 |  | 
CC#CC(=O)N(C)[C@@H](C)c1nc(-c2ccc(C(=O)Nc3ccccn3)c(OC)c2)c2c(N)nccn12 | > 1000 | 3 | > 1000 | 2.4 | 2 | 4.2 |  | 
CC#CC(=O)N1CCC[C@H]1c1nc(-c2ccc(C(=O)Nc3nccs3)c(OC)c2)c2c(N)nccn12 | > 1000 | 7.1 | > 1000 | 11 | 3.9 | 12 |  | 
CC#CC(=O)N1CCC[C@H]1c1nc(-c2ccc(C(=O)Nc3ccc(C)cn3)c(OC)c2)c2c(N)nccn12 | > 1000 | 11 | > 1000 | 5.2 | 6.7 | 11 |  | 
CC#CC(=O)N[C@@H](C)c1nc(-c2ccc(C(=O)Nc3ccc(C)cn3)cc2)c2c(N)nccn12 | 287 | 2.1 |  | 1 | 1.6 | 2.9 |  | 
CC#CC(=O)N[C@@H](C)c1nc(-c2ccc(C(=O)Nc3ccc(C)cn3)c(OC)c2)c2c(N)nccn12 | > 1000 | 1.7 | > 1000 | 1.3 | 1.9 | 2.4 |  | 
CC#CC(=O)N(C)[C@@H](C)c1nc(-c2ccc(C(=O)Nc3ccc(C)cn3)cc2)c2c(N)nccn12 | 254 | 3.9 | 354 | 1.7 | 1.8 | 4.5 |  | 
CC#CC(=O)N(C)[C@@H](C)c1nc(-c2ccc(C(=O)Nc3ccccn3)cc2)c2c(N)nccn12 | > 1000 | 3.7 | 123 | 1.9 | 2.1 | 7.5 |  | 
COC/C=C/C(=O)N(C)[C@@H](C)c1nc(-c2ccc(C(=O)Nc3ccc(C)cn3)cc2)c2c(N)nccn12 |  | 14 |  | 3.5 | 11 | 15 |  | 
COC/C=C/C(=O)N[C@@H](C)c1nc(-c2ccc(C(=O)Nc3ccc(C)cn3)cc2)c2c(N)nccn12 | 478 | 1.5 | 360 | 4.2 | 2.4 | 2.9 |  | 
CC#CC(=O)N[C@@H](C)c1nc(-c2ccc(C(=O)Nc3cc(C(F)(F)F)ccn3)cc2)c2c(N)nccn12 | 119 | 1.8 | 327 | 0.7 | 1.8 | 1.9 |  | 
CC#CC(=O)N[C@@H](C)c1nc(-c2ccc(C(=O)Nc3cc(C(F)(F)F)ccn3)c(OC)c2)c2c(N)nccn12 | > 1000 | 4.7 | > 1000 | 1.4 | 2.2 | 3.5 |  | 
COC/C=C/C(=O)N[C@@H](C)c1nc(-c2ccc(C(=O)Nc3ccc(C)cn3)c(OC)c2)c2c(N)nccn12 | > 1000 | 2.7 | > 1000 | 1.9 | 3.9 | 3 |  | 
CC#CC(=O)N(C)[C@@H](C)c1nc(-c2ccc(C(=O)Nc3cc(C(F)(F)F)ccn3)c(OC)c2)c2c(N)nccn12 | > 1000 | 13 | > 1000 | 2.7 | 3.5 | 7.9 |  | 
CC#CC(=O)N1CCC[C@H]1c1nc(-c2ccc(C(=O)Nc3cscn3)cc2)c2c(N)nccn12 | > 1000 | 33.5 |  |  | 6.3 |  | 9.5 | 
CC#CC(=O)N(C)[C@@H](C)c1nc(-c2ccc(C(=O)Nc3ccc(C)cn3)c(OC)c2)c2c(N)nccn12 [drawing 83] |  | 12 |  | 3.7 | 4.2 | 16 |  | 
CC#CC(=O)N(C)[C@@H](C)c1nc(-c2ccc(C(=O)Nc3ccc(C)cn3)c(OC)c2)c2c(N)nccn12 [drawing 89] |  | 5.1 |  |  | 5.1 | 6.8 |  | 5.1
